≈ marks a conversion by molar mass, not a printed value. Where two headings read alike, the source gives them in different places.
Experiments:
Myzus persicae [1] = assay: whole plant or invertebrate; settings: foliar; for LC50: read-out: LC50 (95% CI's)
[2] = test system: Dorsal root ganglion (DRG) cells; assay: Whole-cell patch-clamp current-clamp recording of dorsal root ganglion cells (membrane potential, action potentials); assay type: cell-based, Sprague-Dawley rats
Procedure: (§1) Dorsal root ganglion (DRG) cells were obtained from young adult male Sprague-Dawley rats weighing 220-250 g. The rats were housed in groups of 4 in an air conditioned room on a 12 hour light/dark cycle with food and water available ad libitum.
(§2) Animals were humanely killed and the lower thoracic and upper lumbar region DRG removed and stored in chilled phosphate buffered saline (PBS). The DRG were carefully trimmed and then digested using 2 mg/mL trypsin (type XII-S) and 2 mg/mL collagenase (type XI), freshly made up in PBS, for 45-60 mins in a shaking water bath at 37° C. Subsequent to extensive washing with PBS and then plating medium (PM; 50:50 mix of DMEM/Hams F12, supplemented with 10% foetal bovine serum, 100 U/mL penicillin and 100 μg/mL streptomycin), careful trituration of the DRG was carried out using sterile fire polished glass pipettes of decreasing diameter and the cells were plated on coated glass coverslips (BD Biosciences, BD Biocoat, poly-D-Lysine), contained in 35 mm tissue culture dishes so that the cells could be easily transferred to the recording chamber mounted on an Olympus IX51 […] microscope for electrophysiological recording. Cells were incubated under standard tissue culture conditions (36° C. in a humidified atmosphere of 5% CO2, 95% air) and were used within 48-72 hours of plating.
(§3) Whole-cell patch-clamp recordings were conducted at room temperature ([…]) using an Axopatch 200B amplifier (Axon Instruments Inc., USA) with 3-7 MΩ electrodes, depending on the patch success rate and recording quality. Data were filtered and digitized appropriately. Current-clamp recordings were performed with pipette solution of the following composition: 140 mM KCl, 0.5 mM EGTA, 5 mM HEPES, 3 mM Mg-ATP and 3 mM Na-GTP (pH 7.3), adjusted to 310 mOsm/L with glucose. The bathing solution contained: 140 mM NaCl, 3 mM KCl, 2 mM MgCl2, 2 mM CaCl2, and 10 mM HEPES (pH 7.3), adjusted to 315 mOsm/L with glucose. Passive membrane properties (e.g. resting membrane potential (Vm)) were monitored during the first few minutes from establishing whole-cell access and periodically during recording. Evoked potential recordings commenced 3-5 minutes after establishing whole-cell configuration.
(§4) Flavesone test solutions were prepared fresh from a stock solution (96.7% w/w) on the day of recording. 100 μL of flavesone composition was mixed with 100 µL of Tween 80 and diluted to 10 mL in artificial cerebrospinal fluid (aCSF) to give a final flavesone concentration of 1%. The pH of the 1% solution was adjusted to 7.3 with 1M NaOH and diluted to 0.5% and 0.25% flavesone concentration with aCSF containing 1% Tween 80 immediately prior to use. Test compounds were applied using a DAD-16VC fast perfusion system (ALA Scientific Instruments, USA) and compared to the results gathered using control flow. The control was aSCF with 1% Tween 80.
(§5) Comparison samples of permethrin were prepared as 100 μM permethrin in […] (DMSO).
(§6) All analysis was conducted using Clampfit (MDS Analytical Technologies) and Excel (Microsoft) software. Statistical comparisons between groups were performed using the Student's t-test with P<0.05 taken to identify a significant difference.

sodium channels = assay: Sodium conductance in the DRG (voltage clamp recording); assay type: cell-based, Sprague-Dawley rats; settings: for Normalised Na^+ Conductance Amplitude, Mean: Control = 100
Procedure: as §1, §2, §3, §4, §5, §6
Pyrethroids such as permethrin are known to be sodium channel modulators. Analysis of the effects of flavesone and permethrin on sodium conductance in the DRG was examined. […]

Myzus persicae [3] = settings: 96 hours exposure; first bioassay dose-response curve
Aedes aegypti L3 larvae = assay: Mosquito larval topical dose-mortality assay (synergism); assay type: in vivo; settings: for LC50: Aedes aegypti, topical
Procedure: The efficacy of a flavesone formulation against mosquito larvae was investigated together with investigation of the potential for synergistic action of flavesone and one or more technical grade insecticides. Dose-mortality assays were performed to evaluate the toxicity of technical grade insecticide, here the synthetic pyrethroid (SP) permethrin at various concentrations (minimum five dose points) alone and co-administered with flavesone at single point dose was performed. Assays were conducted using L3 larvae of the Liverpool (SP susceptible) and Puerto Rico (SP resistant) strains of the yellow fever mosquito, Aedes aegypti maintained in continuous culture at Purdue University, US. Larvae were transferred to a 24 well tissue plate using a wide-bore plastic transfer pipette, 5 larvae per well. The water was gently removed from the well with a 1 mL pipette and an equivalent amount of ddH2O was added. The appropriate volume of test compound was added to each of the four replicate wells per treatment and the plate gently swirled to ensure uniform mixing. The plate was placed in a test or growth chamber under constant conditions of 22-25° C. and about 75-85% relative humidity on a 12 h light/12 hr dark cycle. Assays were scored for the phenotypic endpoint of death/paralysis at 24, 48 and 72 hours post exposure. Each assay incorporated a positive (flavesone) and negative (vehicle only) control, and minimum of four technical replicates per dose of test chemistry. The data reported here represent three biological replicates.
Pilot assays were first employed to determine dose of flavesone (LC50, LC25 or LC10 dose as determined in previous dose-mortality tests) appropriate for synergism assays. […] The Synergistic Ratio (SR) for insecticide+flavesone combination is also shown and the synergistic action evaluated as per the published studies of Ahmed and Matsumura (2012, Journal of Medical Entomology 49(6):1405-10) and Ahmed and Vogel (2015, Acta Tropica 155:1-5).

Musca domestica = assay: Knockdown and mortality of houseflies exposed to treated tiles; assay type: in vivo
Procedure: Each formulation was filled into a hand-held pump sprayer. The treatments were applied to tiles from a distance of 20 cm. The tile was placed on a 0.5 m^2 grid and the entire 0.5 m^2 was sprayed, including the tile, at a rate of 50 mL/m^2. To ensure the correct volume was applied, the pump sprayer was weighed before and after spraying.
The tiles were left for two hours post-treatment to allow the formulation to dry on the tile, before evaluation started.
A control tile that was not treated with any formulation (untreated) was also used.
Ten mixed sex Musca domestica houseflies were placed in a plastic petri dish using a powered aspirator. The petri dish placed over a treated or control tile surface. The petri dish was perforated for ventilation with small holes and a cotton wool plug soaked in sugar solution provided moisture and plugged the insect introduction hole in the petri dish.
The houseflies were constantly exposed to a treated or untreated tile surface. The exposure took place at a temperature of 22±2° C. and about 50% relative humidity (RH).
After 30 minutes exposure, a piece of paper was placed over the tile surface to prevent contact of the houseflies with the treated or untreated tile. The houseflies were held at 22±2° C. and about 50% RH for 24 hours.
Housefly knockdown was noted 15 minutes and 30 minutes after beginning of exposure and 1, 2, 3 and 4 hours after initial exposure.
The above experiment was repeated four times to give five replicates. No statistical analysis was done.

[4] = 0.5% flavesone, Table 3, permethrin experiment
[5] = voltage clamp recording configuration

## CC1(C)C(C=C(Cl)Cl)C1C(=O)OC(C#N)c1cccc(Oc2ccccc2)c1 (stereo not drawn) [Alpha-cypermethrin]
Myzus persicae [1]; 96 h
  mortality at 16 µg/mL: 21.6%
  mortality at 40 µg/mL: 44.9%
  mortality at 60 µg/mL: 52.2%
  mortality at 80 µg/mL: 86.9%
  LC50: 44.6 µg/mL (≈ 107 µM)

## CC(C)C(=O)C1C(=O)C(C)(C)C(=O)C(C)(C)C1=O [Flavesone, 1-isobutyroyl-3,3,5,5-tetramethylcyclohexan-2,4,6-trione]
[2]
  effect on potassium channels: activates one or more potassium channels
  input resistance in DRG neurones: reduced input resistance
[2]; 0.25% flavesone
  Vm (mV) Mean: −71.51 mV
  Δ Vm (mV) Mean: −7.80 mV
[2]; 0.5% flavesone, Control = 100
  Normalised No. of Action Potentials @ Vh −50 mV, Mean: 74.0
[2]; 0.5% flavesone, Table 2
  Vm (mV) Mean: −73.54 mV
  Δ Vm (mV) Mean: −18.15 mV
[2]; [4]
  Vm (mV) Mean: −80.56 mV
  Δ Vm (mV) Mean: −19.63 mV
[2]; 0.5% flavesone, Table 5, Control = 100
  Normalised Action Potentials Amplitude, Mean: 77.72
[2]; 0.5% flavesone, Table 6, Control = 100
  Normalised Action Potentials Amplitude, Mean: 90.17
[2]; 1% flavesone
  Vm (mV) Mean: −83.75 mV
  Δ Vm (mV) Mean: −29.82 mV
[2]; 1% flavesone, Control = 100
  Normalised No. of Action Potentials @ Vh −50 mV, Mean: 65.8
[2]; 1% flavesone, Table 5, Control = 100
  Normalised Action Potentials Amplitude, Mean: 28.35
[2]; 1% flavesone, Table 6, Control = 100
  Normalised Action Potentials Amplitude, Mean: 91.50
[2]; flavesone, Table 4
  number of action potentials: slightly reduced
[2]; flavesone, Table 5
  amplitude of the action potentials: reduced
[2]; flavesone, Table 6
  action potential threshold: no significant effect
[2]; in the presence of flavesone
  resting potential from current-voltage relations: about −84 mV
[2]; reduced from about −62 mV by flavesone
  mean resting potential (Vm): about −84 mV
Sodium channels
  effect on sodium channels: no effect on sodium channels
Sodium channels; 0.5% flavesone, 1% flavesone versus control and wash
  area under the curve (AUC): no significant difference
Sodium channels; 0.5% flavesone
  Normalised Na^+ Conductance Amplitude, Mean: 84.65
Sodium channels; 1% flavesone
  Normalised Na^+ Conductance Amplitude, Mean: 77.56
Sodium channels; flavesone, Table 10
  sodium conductance amplitude: no significant effect
Sodium channels; [5]
  channel inactivation/deactivation: no effect
Sodium channels; voltage clamp recording configuration, not significantly different to control
  reduction of sodium channel conductance: approximately 20%
Myzus persicae [3]
  LC15: 1200 mg a.i./L
  LC30: 1800 mg a.i./L
Aedes aegypti L3 larvae; addition of flavesone
  larval phenotype: unambiguous “lethal” larval phenotype
Myzus persicae [1]; 96 h
  mortality at 1200 µg/mL: 10.9%
  mortality at 1800 µg/mL: 25.7%
Myzus persicae [1]
  LC50: 2730 µg/mL (≈ 10800 µM)
Musca domestica; both rates (200 mg/mL & 100 mg/mL), 24 hours post initial exposure
  mortality: 100%
Musca domestica; rates of 200 mg/mL & 100 mg/mL, after 15 minutes exposure
  knockdown of houseflies: 100%

## CC1(C)C(C=C(Cl)Cl)C1C(=O)OCc1cccc(Oc2ccccc2)c1 (stereo not drawn) [Permethrin]
[2]
  effect on potassium channels: no effect on potassium channels
  input resistance in DRG neurones: no effect on the input resistance
[2]; 100 μM
  effect on mean resting potential (Vm): no effect
[2]; 100 μM permethrin
  Vm (mV) Mean: −61.48 mV
  Δ Vm (mV) Mean: −08 mV
[2]; 100 μM permethrin, Control = 100
  DRG Normalised No. of Action Potentials @ Vh −50 mV, Mean: 17.95
[2]; 100 μM permethrin, Table 8, Control = 100
  Normalised Action Potentials Amplitude, Mean: 99.46
[2]; 100 μM permethrin, Table 9, Control = 100
  Normalised Action Potentials Amplitude, Mean: 100.20
[2]; permethrin 100 μM, Table 7
  number of action potentials: significantly reduced
[2]; permethrin 100 μM, Table 8
  amplitude of the actions: no effect
[2]; permethrin 100 μM, Table 9
  action potential threshold: no effect
Sodium channels
  effect on sodium channels: had an effect on sodium channels
Sodium channels; 100 μM permethrin, Table 11
  Normalised Na^+ Conductance Amplitude, Mean: 103.47
Sodium channels; 100 μM permethrin, Table 12
  Normalised Na^+ Conductance Amplitude, Mean: 282.56
Sodium channels; permethrin, Table 11
  sodium conductance amplitude: little effect
Sodium channels; permethrin, Table 12
  area under the curve (AUC): significant increase
Sodium channels; [5]
  channel inactivation/deactivation: significantly prolonged channel inactivation
Aedes aegypti L3 larvae; 24 h, read-out: LC50 (ng/ml) (95% CL), Permethrin Dose-Mortality, L3 larvae, Liverpool (LVP, SP susceptible) strain, 24 hours post exposure, Permethrin alone
  LC50: 26.7 ng/mL
Aedes aegypti L3 larvae; 24 h, read-out: LC50 (ng/ml) (95% CL), Permethrin Dose-Mortality, L3 larvae, Puerto Rico (PRS, SP resistant) strain, 24 hours post exposure, Permethrin alone
  LC50: 280 ng/mL
Aedes aegypti L3 larvae; 48 h, read-out: LC50 (ng/ml) (95% CL), Permethrin Dose-Mortality, L3 larvae, Liverpool (LVP, SP susceptible) strain, 48 hours post exposure, Permethrin alone
  LC50: 24.3 ng/mL
Aedes aegypti L3 larvae; 48 h, read-out: LC50 (ng/ml) (95% CL), Permethrin Dose-Mortality, L3 larvae, Puerto Rico (PRS, SP resistant) strain, 48 hours post exposure, Permethrin alone
  LC50: 231 ng/mL
Aedes aegypti L3 larvae; Puerto Rico strain larvae as compared to Liverpool strain larvae
  level of resistance to Permethrin: approximately 10 fold
Musca domestica; 1.25 mg/mL rate, 24 hours post-initial exposure
  mortality: 62%
Musca domestica; 2.5 mg/mL and 1.25 mg/mL, any assessment time
  knockdown of houseflies: < 100%
Musca domestica; 2.5 mg/mL rate, 24 hours post-initial exposure
  mortality: 72%
Musca domestica; both rates (2.5 and 1.25 mg/mL), 1-hour post initial exposure
  knockdown of houseflies: 94%

## Cc1nc(N(C)C)nc(OC(=O)N(C)C)c1C [Pirimicarb]
Myzus persicae [1]; 96 h
  mortality at 10 µg/mL: 20.3%
  mortality at 18.5 µg/mL: 36.1%
  mortality at 23 µg/mL: 82.8%
  mortality at 30 µg/mL: 76.2%
  LC50: 19.7 µg/mL (≈ 82.7 µM)
